This is an account of results in patent publication US7674807B2, “Heterocycle-substituted n-phenyl-phthalamide derivatives, related compounds and their use as insecticides” (Bayer CropScience AG, priority 2004, dated 2010).

The subject of test [1] is larva of Spodoptera litura. Nature of the test: Test against larva of Spodoptera litura (leaf dip, sweet potato leaves). It is filed as in vivo. Particulars: 20 ppm concentration of the active component; third instar larvae; counted after 7 days; 25° C. An outline of the steps: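 Sweet potato leaves were dipped in emulsified compound diluted with water, air-dried, and given to 10 third-instar larvae per dish at 25° C, with fresh leaves added on days 2 and 4. Mortality was counted after 7 days and averaged over 2 dishes.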

Test [2] has as its system larva of Cnaphalocrocis medinalis Guenee. Nature of the test: Test against larva of Cnaphalocrocis medinalis Guenee (sprayed paddy rice foliage). It is filed as in vivo. Particulars: 20 ppm concentration of the active component; second instar larvae; counted after 7 days; 25° C. An outline of the steps:
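Potted rice (Tamanishiki) sprayed with aqueous dilutions of compound at the prescribed concentration; air-dried leaf pieces placed in dishes with five 2nd-instar larvae at 25° C, fresh treated foliage added at days 2 and 4. Mortality counted at day 7, averaged over 2 dishes.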

For the compound `Cc1cc(Cn2nc(C(F)(F)F)cc2C(F)(F)F)ccc1NC(=O)c1cccc(Br)c1C(=O)NC(C)C[S+](C)[O-]` (mixture of isomers) [compound 51], the “controlling effect, rate of death” value in test [1] and in test [2] was 100% throughout.

For the compound `CSCC(C)NC(=O)c1c(I)cccc1C(=O)Nc1ccc(Cn2cc(C(F)(F)F)nc2C(F)(F)F)cc1C` (stereo not shown) [compound 281], the “controlling effect, rate of death” value in test [1] and in test [2] was 100% each time.

Regarding `CSC[C@H](C)NC(=O)c1c(Cl)cccc1C(=O)Nc1ccc(C(C)n2nc(C(F)(F)F)nc2C(F)(F)F)cc1C` (stereo partly shown) [compound 568], the “controlling effect, rate of death” value in test [1] and in test [2] was 100% throughout.

As to `CSCC(C)NC(=O)c1c(I)cccc1C(=O)Nc1ccc(-c2cc(OC(F)F)n(C(F)F)n2)cc1C` (stereo not shown) [compound 518], the “controlling effect, rate of death” value in test [1] and in test [2] was 100% each time.

Take `Cc1cc(Cn2nc(C(F)(F)F)nc2C(F)(F)F)ccc1NC(=O)c1cccc(I)c1C(=O)NC(C)C` [compound 210]: the “controlling effect, rate of death” value in test [1] and in test [2] was 100% throughout.

For the compound `Cc1cc(Cn2nc(C(F)(F)F)nc2C(F)(F)F)ccc1NC(=O)c1cccc(I)c1C(=O)NC(C)CS(C)(=O)=O` (stereo not shown) [compound 219], the “controlling effect, rate of death” value in test [1] and in test [2] was 100% each time.

In the case of `CSC[C@H](C)NC(=O)c1c(C(=O)Nc2ccc(Cn3nc(C(F)(F)F)cc3C(F)(F)F)cc2C)cccc1S(C)(=O)=O` [compound 552], the “controlling effect, rate of death” value in test [1] and in test [2] was 100% each time.

On to `Cc1cc(Cn2cc(C(F)(F)C(F)(F)C(F)(F)F)c(C(F)(F)C(F)(F)C(F)(F)F)n2)ccc1NC(=O)c1cccc(I)c1C(=O)N[C@@H](C)CS(C)(=O)=O` [compound 672], for which the “controlling effect, rate of death” value in test [1] and in test [2] was 100% throughout.

For `Cc1cc(Cn2cc(C(F)(F)C(F)(F)F)c(C(F)(F)F)n2)ccc1NC(=O)c1cccc(Cl)c1C(=O)N[C@@H](C)C[S+](C)[O-]` (stereo partly shown) [compound 638], the “controlling effect, rate of death” value in test [1] and in test [2] was 100% in each case.

For `Cc1cc(Cn2nc(C(F)(F)F)cc2C(F)(F)F)ccc1NC(=O)c1cccc(I)c1C(=O)NC(C)(C)CS(C)(=O)=O` [compound 84, N^1-{4-[3,5-bis(trifluoromethyl)-1H-pyrazol-1-ylmethyl]-2-methylphenyl}-3-iodo-N^2-(2-methanesulfonyl-1,1-dimethylethyl)phthalamide], the “controlling effect, rate of death” value in test [1] and in test [2] was 100% each time.

Turning to `Cc1cc(Cn2nc(C(F)(F)F)nc2C(F)(F)F)ccc1NC(=O)c1cccc(I)c1C(=O)NC(C)C[S+](C)[O-]` (stereo not shown) [compound 216], the “controlling effect, rate of death” value in test [1] and in test [2] was 100% throughout.

Regarding `Cc1cc(Cn2nc(C(F)(F)F)cc2C(F)(F)F)ccc1NC(=O)c1cccc(I)c1C(=O)NC(C)C` [compound 81], the “controlling effect, rate of death” value in test [1] and in test [2] was 100% in each case.

With `CSCC(C)(C)NC(=O)c1c(I)cccc1C(=O)Nc1ccc(C(C)n2nc(C(F)(F)F)cc2C(F)(F)F)cc1C` (stereo not shown) [compound 565], the “controlling effect, rate of death” value in test [1] and in test [2] was 100% each time.

In the case of `CC[S+]([O-])CC(C)NC(=O)c1c(I)cccc1C(=O)Nc1ccc(Cn2nc(C(F)(F)F)nc2C(F)(F)F)cc1C` (stereo not shown) [compound 221], the “controlling effect, rate of death” value in test [1] and in test [2] was 100% throughout.

For `CSCC(C)NC(=O)c1c(Br)cccc1C(=O)Nc1ccc(Cn2nc(C(F)(F)F)cc2C(F)(F)F)cc1C` (racemic) [compound 48], the “controlling effect, rate of death” value in test [1] and in test [2] was 100% in each case.

Regarding `CSCC(C)NC(=O)c1c(I)cccc1C(=O)Nc1ccc(Cc2c(C(F)(F)F)nn(C(F)F)c2OC(F)F)cc1C` (stereo not shown) [compound 262], the “controlling effect, rate of death” value in test [1] and in test [2] was 100% throughout.

Consider `CSCC(C)(C)NC(=O)c1c(Cl)cccc1C(=O)Nc1ccc(Cn2nc(C(F)(F)C(F)(F)F)nc2C(F)(F)F)cc1C` [compound 149], for which the “controlling effect, rate of death” value in test [1] and in test [2] was 100% each time.

For the compound `Cc1cc(Oc2nc(C(F)(F)F)cc(C(F)(F)F)n2)ccc1NC(=O)c1cccc(I)c1C(=O)NC(C)(C)CS(C)(=O)=O` [compound 310], the “controlling effect, rate of death” value in test [1] and in test [2] was 100% in each case.

`Cc1cc(Cn2cc(C(F)(F)C(F)(F)C(F)(F)C(F)(F)F)c(C(F)(F)F)n2)ccc1NC(=O)c1cccc(Cl)c1C(=O)N[C@@H](C)C[S+](C)[O-]` (stereo partly shown) [compound 646]: the “controlling effect, rate of death” value in test [1] and in test [2] was 100% in each case.

As to `CSCC(C)NC(=O)c1c(OS(C)(=O)=O)cccc1C(=O)Nc1ccc(Cn2nc(C(F)(F)F)nc2C(F)(F)F)cc1C` (stereo not shown) [compound 251], the “controlling effect, rate of death” value in test [1] and in test [2] was 100% in each case.

Turning to `CSCC(C)NC(=O)c1c(I)cccc1C(=O)Nc1ccc(-n2nc(C(F)(F)C(F)(F)F)cc2C(F)(F)F)cc1C` (stereo not shown) [compound 473], the “controlling effect, rate of death” value in test [1] and in test [2] was 100% throughout.

As to `Cc1cc(Cn2nc(C(F)(F)C(F)(F)F)nc2C(F)(F)F)ccc1NC(=O)c1cccc(I)c1C(=O)NC(C)C[S+](C)[O-]` (stereo not shown) [compound 229], the “controlling effect, rate of death” value in test [1] and in test [2] was 100% in each case.

For `Cc1cc(Cn2nc(C(F)(F)F)nc2C(F)(F)F)ccc1NC(=O)c1cccc([N+](=O)[O-])c1C(=O)N[C@@H](C)C[S+](C)[O-]` (stereo partly shown) [compound 547], the “controlling effect, rate of death” value in test [1] and in test [2] was 100% each time.

On to `Cc1cc(Cn2nc(C(F)(F)F)cc2C(F)(F)F)ccc1NC(=O)c1cccc([N+](=O)[O-])c1C(=O)N[C@@H](C)CS(C)(=O)=O` [compound 545], for which the “controlling effect, rate of death” value in test [1] and in test [2] was 100% in each case.

In the case of `CSCC(C)NC(=O)c1c(Cl)cccc1C(=O)Nc1ccc(Cn2nc(C(F)(F)F)cc2C(F)(F)F)cc1C` (stereo not shown) [compound 12], the “controlling effect, rate of death” value in test [1] and in test [2] was 100% each time.

As for `Cc1cc(Cn2nc(C(F)(F)C(F)(F)F)nc2C(F)(F)F)ccc1NC(=O)c1cccc(I)c1C(=O)NC(C)CS(C)(=O)=O` (stereo not shown) [compound 230], the “controlling effect, rate of death” value in test [1] and in test [2] was 100% in each case.

On to `CSCC(C)NC(=O)c1c(I)cccc1C(=O)Nc1ccc(-n2nc(C(F)(F)F)cc2C(F)(F)F)cc1C` (stereo not shown) [compound 413], for which the “controlling effect, rate of death” value in test [1] and in test [2] was 100% throughout.

As for `Cc1cc(Cn2nc(C(F)(F)F)cc2C(F)(F)F)ccc1NC(=O)c1cccc(Br)c1C(=O)NC(C)CS(C)(=O)=O` (stereo not shown) [compound 53], the “controlling effect, rate of death” value in test [1] and in test [2] was 100% throughout.

With `Cc1cc(Cn2nc(C(F)(F)F)nc2C(F)(F)F)ccc1NC(=O)c1cccc(Cl)c1C(=O)NC(C)(C)C[S+](C)[O-]` (stereo not shown) [compound 138], the “controlling effect, rate of death” value in test [1] and in test [2] was 100% in each case.
